In PubChem BioAssay (NCI):
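Where inhibition never reached the appropriate level, the endpoint shown equals the highest concentration tested. Otherwise, values were interpolated linearly from a five-concentration, 48-hour dose response in 96-well plates. GI50 = concentration required for 50% inhibition of growth. TGI marks complete inhibition of growth.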

Legend:
Test in all cases: NCI-60 cell line screen, 48 h
[1] = system: EKVX NSCLC
[2] = system: HOP-62 NSCLC
[3] = system: OVCAR-4 ovarian
[4] = system: HT29 colon
[5] = system: SK-MEL-2 melanoma
[6] = system: HOP-92 NSCLC
[7] = system: ACHN renal
[8] = system: RPMI-8226 leukemia
[9] = system: HCC-2998 colon
[10] = system: SR leukemia

SMILES	TGI [1] [µM]	TGI [2] [µM]	TGI [3] [µM]	TGI [4] [µM]	TGI [5] [µM]	TGI [6] [µM]	TGI [7] [µM]	TGI [8] [µM]	TGI [9] [µM]	TGI [10] [µM]	GI50 [1] [µM]	GI50 [3] [µM]	GI50 [4] [µM]	GI50 [5] [µM]	GI50 [6] [µM]	GI50 [7] [µM]	GI50 [8] [µM]	GI50 [9] [µM]	GI50 [10] [µM]	GI50 [2] [µM]
O=C(/C=C/c1cccc2ccccc12)c1ccccc1Cl	28.6	37.3	28.5	26.4	34.7	26.4	31.3	47.3	28.4	11.3										
NCCNc1c2c(c(NCCN)c3[nH]ccc13)C(=O)c1ccccc1C2=O	3.91	0.624	1.34	0.634	2.41	4.21	0.706	1.21	0.093	0.334	1.25	0.296	0.0527	0.785	0.427	0.124	0.278	< 0.01	0.0527	
CN(C)CC1CCCC/C1=N/OC(=O)c1ccc(Cl)cc1 (centres undefined)	> 100	> 100	> 100	> 100	> 100	> 100	> 100	> 100	> 100	> 100										
COC(=O)C(Cc1nc2ccc(Cl)cc2[nH]c1=O)/C(=N\N)C(=O)Nc1cc(C)c(Cl)cc1S(=O)(=O)O (centres undefined)	> 100	> 100	> 100	> 100	> 100	> 100	> 100	> 100	> 100	> 100										
CN1CCOC(c2ccccc2)O1 (centres undefined)	> 100	> 100	> 100	> 100	> 100	> 100	> 100	> 100	> 100	> 100										
Cc1ccc(NC(=O)CC2CC2)cc1-c1ccc(C(=O)NCC2CC2)cc1	> 25	> 25	> 25	> 25	> 25	> 25	> 25	> 25	> 25	> 25	> 25	> 25	> 25	> 25	8.45	> 25	> 25	> 25	13.5	> 25
Nc1nc(/C=C\c2ccc([N+](=O)[O-])s2)nc(N2CCCC2)n1	30	26.7	14.1	14.8	27.9	18.6	10.9	4.39	12.8	6.49	10.8	5	2.97	12.9	6.73	0.743	1.26	4.86	1.62	13.5
S=c1sc2c(Cl)nc(Cl)nc2n1-c1ccccc1	> 100	> 100	> 100	> 100	> 100	> 100	> 100	> 100	> 100	55.1										
CCOc1ccccc1NC(=O)C(=O)CC(=O)c1sc(Nc2nnc(-c3ccc(Cl)c(Cl)c3)o2)nc1C	> 100	> 100	> 100	> 100	> 100	> 100	> 100	> 100	> 100	> 100										
COc1ccc2[nH]cc(C3(c4c[nH]c5ccc(OC)cc45)C(=O)Nc4ccc(F)cc43)c2c1	8.07	13	11.6	6.14	5.02	9.24	10.1	> 100	8.97	4.97	2.35	2.76	2.44	2.34	2.39	2.93	4.41	2.93	2.03	3.09
